According to PubChem BioAssay AID248 (DTP/NCI, 2004):
“And” between values parts separate entries of the source, which are not always exact repeats. Equal entries are not always repeated. Toxic doses and inconclusive results are not listed. Cut-off read from the data, not from the text of the source: active = T/C of 150% or more; inactive = T/C below 125%.

Test system: L1210 leukemia ip in BDF1 mice, survival T/C
Experiment: NCI In Vivo Anticancer Drug Screen. Data for tumor model L1210 Leukemia (intraperitoneal) in B6D2F1 (BDF1) mice
Conditions: endpoint: mean survival time, higher = longer survival
In short: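 Transplantable tumor model; survival measured in treated vs vehicle control mice. Value = treated/control.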

[1] = dose: 100.0 mg/kg/injection, schedule: Q01DX009 (ip), vehicle: Klucel (hydroxypropylcellulose) (HPC)
[2] = dose: 100.0 mg/kg/injection, schedule: Q04DX002 (ip), vehicle: Klucel (hydroxypropylcellulose) (HPC)
[3] = dose: 200.0 mg/kg/injection, schedule: Q01DX009 (ip), vehicle: Klucel (hydroxypropylcellulose) (HPC)
[4] = dose: 400.0 mg/kg/injection, schedule: Q01DX009 (ip), vehicle: Klucel (hydroxypropylcellulose) (HPC)
[5] = dose: 400.0 mg/kg/injection, schedule: Q04DX002 (ip), vehicle: Klucel (hydroxypropylcellulose) (HPC)
[6] = dose: 100.0 mg/kg/injection, schedule: Q01DX001 (ip), vehicle: saline
[7] = dose: 200.0 mg/kg/injection, schedule: Q01DX001 (ip), vehicle: saline
[8] = dose: 400.0 mg/kg/injection, schedule: Q01DX001 (ip), vehicle: saline
[9] = dose: 200.0 mg/kg/injection, schedule: Q04DX002 (ip), vehicle: Klucel (hydroxypropylcellulose) (HPC)
[10] = dose: 100.0 mg/kg/injection, schedule: Q01DX001 (ip), vehicle: carboxymethylcellulose (CMC)
[11] = dose: 200.0 mg/kg/injection, schedule: Q01DX001 (ip), vehicle: carboxymethylcellulose (CMC)
[12] = dose: 400.0 mg/kg/injection, schedule: Q01DX001 (ip), vehicle: carboxymethylcellulose (CMC)
[13] = dose: 100.0 mg/kg/injection, schedule: Q01DX009 (ip), vehicle: saline
[14] = dose: 100.0 mg/kg/injection, schedule: Q04DX003 (ip), vehicle: saline
[15] = dose: 200.0 mg/kg/injection, schedule: Q04DX003 (ip), vehicle: saline
[16] = dose: 400.0 mg/kg/injection, schedule: Q04DX003 (ip), vehicle: saline
[17] = dose: 100.0 mg/kg/injection, schedule: Q04DX003 (ip), vehicle: Klucel (hydroxypropylcellulose) (HPC)
[18] = dose: 200.0 mg/kg/injection, schedule: Q04DX003 (ip), vehicle: Klucel (hydroxypropylcellulose) (HPC)
[19] = dose: 100.0 mg/kg/injection, schedule: Q01DX005 (ip), vehicle: saline
[20] = dose: 50.0 mg/kg/injection, schedule: Q01DX009 (ip), vehicle: saline
[21] = dose: 100.0 mg/kg/injection, schedule: Q04DX003 (ip), vehicle: saline with Tween-80
[22] = dose: 200.0 mg/kg/injection, schedule: Q04DX003 (ip), vehicle: saline with Tween-80
[23] = dose: 400.0 mg/kg/injection, schedule: Q04DX003 (ip), vehicle: saline with Tween-80
[24] = dose: 100.0 mg/kg/injection, schedule: Q01DX009 (ip), vehicle: saline with Tween-80
[25] = dose: 200.0 mg/kg/injection, schedule: Q01DX009 (ip), vehicle: saline with Tween-80

Measured: T/C

CN(Cc1ccccc1)C(=O)c1ccc(Cl)cc1
inactive: [1] 111 % of control | [2] 101 % of control | [3] 105 % of control | [4] 100 % of control | [5] 89 % of control

CCOC(=O)COc1ccc2c(C)c(CCN(CC)CC)c(=O)oc2c1
inactive: [6] 103 % of control | [7] 92 % of control | [8] 96 % of control

Cc1nn(C)c(Cl)c1[N+](=O)[O-]
inactive: [1] 102 % of control | [2] 102 % of control | [3] 97 % of control | [9] 91 % of control | [4] 100 % of control | [5] 94 % of control

COc1ccc(NC(=O)C(Cl)Cl)cc1NC(C)=O
inactive: [10] 96 % of control | [11] 108 % of control | [12] 91 % of control

CN(C)c1cc(F)c(C=O)cc1[N+](=O)[O-]
inactive: [13] 100 % of control | [14] 113 % of control | dose: 200.0 mg/kg/injection, schedule: Q01DX009 (ip), vehicle: saline 105 % of control | [15] 105 % of control | dose: 400.0 mg/kg/injection, schedule: Q01DX009 (ip), vehicle: saline 100 % of control | [16] 98 % of control

Nc1ccc(N=Nc2ccc(S(N)(=O)=O)cc2)c(N)n1
inactive: [6] 107 % of control | [7] 114 % of control | [8] 104 % of control

CCCCCCCCCCCCCCCCCCNC(=O)Nc1ccc(C(C)C)cc1
inactive: [1] 95 % of control | [17] 89 % of control | [3] 92 % of control | [18] 89 % of control | [4] 92 % of control

CC1(C)OC2C(C(=O)NO)OC(n3cnc4c(N)ncnc43)C2O1 (configuration not stated)
inactive: [19] 101 % of control | dose: 200.0 mg/kg/injection, schedule: Q01DX005 (ip), vehicle: saline 101 % of control

Cc1ccc(S(=O)(=O)OC2CCN(C)CC2)cc1
inactive: dose: 6.0 mg/kg/injection, schedule: Q01DX009 (ip), vehicle: saline 91 % of control | dose: 12.0 mg/kg/injection, schedule: Q01DX009 (ip), vehicle: saline 93 % of control | dose: 12.0 mg/kg/injection, schedule: Q04DX003 (ip), vehicle: saline 102 % of control | dose: 25.0 mg/kg/injection, schedule: Q01DX005 (ip), vehicle: saline 97 % of control | dose: 25.0 mg/kg/injection, schedule: Q01DX009 (ip), vehicle: saline 93 % of control and 94 % of control | dose: 25.0 mg/kg/injection, schedule: Q04DX003 (ip), vehicle: saline 96 % of control | dose: 50.0 mg/kg/injection, schedule: Q01DX005 (ip), vehicle: saline 97 % of control | [20] 96 % of control | [19] 97 % of control and 99 % of control | [13] 112 % of control

O=C1C2CCN(CC2)C1CN1CCC(O)(c2ccc(Cl)cc2)CC1 (configuration not stated)
inactive: [17] 104 % of control | [18] 101 % of control

C1=C[P+](c2ccccc2)(c2ccccc2)CC[P+]1(c1ccccc1)c1ccccc1
inactive: dose: 75.0 mg/kg/injection, schedule: Q01DX001 (ip), vehicle: other 98 % of control | dose: 150.0 mg/kg/injection, schedule: Q01DX001 (ip), vehicle: other 95 % of control

CN(C)C(=O)CNc1ccc(S(=O)(=O)c2ccc(Cl)cc2)cc1
inactive: [21] 101 % of control | [22] 101 % of control | [23] 95 % of control

COc1ccc(/C=N/NC(=O)c2ccc(Cl)cc2Cl)cc1OC
inactive: dose: 50.0 mg/kg/injection, schedule: Q01DX009 (ip), vehicle: saline with Tween-80 103 % of control | [24] 88 % of control | [25] 92 % of control

CSC(N)=Nc1cccc2c1CCCC2
inactive: [20] 98 % of control | dose: 50.0 mg/kg/injection, schedule: Q04DX003 (ip), vehicle: saline 102 % of control | [13] 98 % of control | [14] 88 % of control | [15] 92 % of control

Cc1cc(=O)[nH]c(=O)n1Cc1ccccc1
inactive: dose: 100.0 mg/kg/injection, schedule: Q01DX001 (ip), vehicle: Klucel (hydroxypropylcellulose) (HPC) 117 % of control | dose: 200.0 mg/kg/injection, schedule: Q01DX001 (ip), vehicle: Klucel (hydroxypropylcellulose) (HPC) 117 % of control | dose: 400.0 mg/kg/injection, schedule: Q01DX001 (ip), vehicle: Klucel (hydroxypropylcellulose) (HPC) 122 % of control

CCOC(=O)c1nn(C)c(=S)[nH]c1=O
inactive: dose: 100.0 mg/kg/injection, schedule: Q01DX Z (ip), vehicle: methylcellulose (MC) 92 % of control | dose: 200.0 mg/kg/injection, schedule: Q01DX Z (ip), vehicle: methylcellulose (MC) 90 % of control

CC1(C)CNC(C(=O)O)C1 (configuration not stated)
inactive: [24] 100 % of control | [14] 96 % of control | [25] 96 % of control | [15] 95 % of control | [16] 98 % of control

Clc1ccccc1/C=N/Nc1c2ccccc2nc2ccccc12
inactive: [8] 87 % of control

CCCCS/C=C1/CC2(C)C(CCC3C4CCC(O)C4(C)CCC32)CC1=O (configuration not stated)
inactive: [17] 89 % of control | [18] 91 % of control

CC(C)[Si](F)(c1ccc(Br)cc1)C(C)C
inactive: [24] 103 % of control | [25] 95 % of control

Nc1ncc(CSCc2ccccc2)c(-c2ccccc2)n1
inactive: dose: 100.0 mg/kg/injection, schedule: Q04DX002 (ip), vehicle: saline with Tween-80 100 % of control | dose: 200.0 mg/kg/injection, schedule: Q04DX002 (ip), vehicle: saline with Tween-80 96 % of control | dose: 400.0 mg/kg/injection, schedule: Q04DX002 (ip), vehicle: saline with Tween-80 96 % of control

COC(=O)c1ccccc1SSc1ccccc1C(=O)OC
inactive: [21] 95 % of control | [22] 102 % of control | [23] 102 % of control

Cc1cccc(C2C(=O)c3ccccc3C2=O)n1
inactive: [24] 88 % of control | [21] 95 % of control | [25] 89 % of control | [22] 99 % of control | dose: 400.0 mg/kg/injection, schedule: Q01DX009 (ip), vehicle: saline with Tween-80 91 % of control | [23] 88 % of control

O=C(Nc1ccccc1Cl)NC1CCCCC1
inactive: [1] 100 % of control | [2] 95 % of control | [3] 97 % of control | [9] 100 % of control | [4] 91 % of control | [5] 95 % of control

CCOc1ccc(O)cc1
inactive: dose: 100.0 mg/kg/injection, schedule: Q04DX002 (ip), vehicle: saline + alcohol 109 % of control | dose: 200.0 mg/kg/injection, schedule: Q04DX002 (ip), vehicle: saline + alcohol 100 % of control

CN1COc2c(nc(-c3ccccc3)[nH]c2=O)C1
inactive: dose: 50.0 mg/kg/injection, schedule: Q01DX001 (ip), vehicle: carboxymethylcellulose (CMC) 101 % of control | [10] 98 % of control | [11] 98 % of control | [12] 95 % of control
